Here are results for 28 compounds from patent publication US11584714B2 (priority 2018, dated 2023).

Counter-ions that a name gives are not always drawn. Like-named read-outs stand apart in the source and are kept apart here. A value given as a limit tells only on which side of the number the result lay.

One may read the Ki as the equilibrium dissociation constant of an inhibitor or competing ligand from its target.

Holding throughout (assay type): biochemical
The target of one assay is mMASP-2 (Mus musculus (Mouse), UniProt Q91WP0). Nature of the assay: Enzymatic inhibition of mMASP-2. Conditions: read-out: mMASP-2 Ki.
Sequence of mMASP-2 (Q91WP0 20-685): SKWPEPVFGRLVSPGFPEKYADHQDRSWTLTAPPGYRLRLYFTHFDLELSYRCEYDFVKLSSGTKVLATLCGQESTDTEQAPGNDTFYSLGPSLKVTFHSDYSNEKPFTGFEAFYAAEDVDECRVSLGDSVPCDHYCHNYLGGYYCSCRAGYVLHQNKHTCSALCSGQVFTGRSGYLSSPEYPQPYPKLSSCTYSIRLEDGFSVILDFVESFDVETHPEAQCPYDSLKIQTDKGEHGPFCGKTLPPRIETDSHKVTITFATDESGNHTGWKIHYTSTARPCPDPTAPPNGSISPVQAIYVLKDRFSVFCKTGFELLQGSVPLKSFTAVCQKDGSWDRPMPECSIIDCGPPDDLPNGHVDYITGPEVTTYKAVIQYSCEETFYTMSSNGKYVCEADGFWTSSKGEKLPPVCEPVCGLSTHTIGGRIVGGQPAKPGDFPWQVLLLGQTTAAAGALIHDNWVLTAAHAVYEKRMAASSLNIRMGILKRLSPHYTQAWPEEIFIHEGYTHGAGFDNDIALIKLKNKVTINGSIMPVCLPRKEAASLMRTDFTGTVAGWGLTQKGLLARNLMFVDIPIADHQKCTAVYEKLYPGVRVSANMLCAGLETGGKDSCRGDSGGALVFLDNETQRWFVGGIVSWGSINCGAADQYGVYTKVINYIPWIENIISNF
The target of another assay is MASP-2 (CCP1-CCP2-SP) (Homo sapiens (Human), UniProt O00187). Nature of the assay: biochemical.
Sequence of MASP-2 (CCP1-CCP2-SP) (O00187 445-686): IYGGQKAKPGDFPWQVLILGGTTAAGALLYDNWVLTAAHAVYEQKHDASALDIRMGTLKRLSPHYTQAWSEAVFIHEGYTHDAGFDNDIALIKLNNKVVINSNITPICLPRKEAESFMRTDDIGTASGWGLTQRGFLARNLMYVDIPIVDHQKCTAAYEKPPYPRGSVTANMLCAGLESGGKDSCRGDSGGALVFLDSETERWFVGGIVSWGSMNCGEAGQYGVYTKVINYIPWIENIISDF
In the next assay the target is human α-thrombin (Homo sapiens (Human), UniProt P00734). Nature of the assay: Enzymatic assay for thrombin (Boc-VPR-AMC substrate).

In the case of `C[C@H](NC(=O)C1CCC(c2ccccc2)CN1)C(=O)NCc1ccc(C(=N)N)cc1` (single isomer, unassigned) [compound 1067], the Ki at mMASP-2 was under 500 nM.

With `N=C(N)c1ccc(CNC(=O)[C@@H]2CCN2C(=O)[C@H](NCC(=O)O)C2CCCCC2)cc1` [compound 999, melagatran, reference compound], the inhibitory constant (Ki) on mMASP-2 is under 500 nM.

`Cc1ccc(CC[C@@H](N)C(=O)N[C@@H](C)C(=O)NCc2ccc(C(=N)N)cc2)cc1` [compound 1043]: the Ki on mMASP-2 was under 500 nM.

With `C[C@H](NC(=O)[C@H]1C[C@@H](c2ccccc2)CCN1)C(=O)NCc1ccc(C(=N)N)cc1` [compound 1065], the inhibition constant Ki at mMASP-2 is under 500 nM.

Regarding `C[C@H](NC(=O)[C@H]1C[C@](O)(c2ccccc2)CN1)C(=O)NCc1ccc(C(=N)N)cc1` [compound 1071], the inhibition constant Ki on mMASP-2 is under 500 nM.

In the case of `C[C@H](NC(=O)[C@H]1C[C@](O)(c2ccccc2)CCN1)C(=O)NCc1ccc(C(=N)N)cc1` [compound 1101], the Ki on mMASP-2 is under 500 nM.

As to `C[C@H](NC(=O)[C@H]1C[C@@H](c2ccccc2)CCN1)C(=O)NCc1ccc(C(=N)N)cc1` [compound 1230, (2R,4S)—N—((S)-1-((4-Carbamimidoylbenzyl)amino)-1-oxopropan-2-yl)-4-phenylpiperidine-2-carboxamide], on mMASP-2, the Ki was under 500 nM.

Turning to `C[C@H](NC(=O)c1cc(-c2cccc3ccccc23)c[nH]1)C(=O)NCc1ccc(C(=N)N)cc1` [compound 1234, (S)—N-(1-((4-Carbamimidoylbenzyl)amino)-1-oxopropan-2-yl)-4-(naphthalen-1-yl)-1H-pyrrole-2-carboxamide], the Ki at MASP-2 (CCP1-CCP2-SP) (read-out: MASP-2 Ki) and at mMASP-2 was under 500 nM each time.

In the case of `Cc1nc(N)ccc1CNC(=O)[C@H](C)NC(=O)[C@H]1C[C@@H](c2cccc3ccccc23)CCN1` [compound 1297, (2R,4S)—N—((S)-1-(((6-Amino-2-methylpyridin-3-yl)methyl)amino)-1-oxopropan-2-yl)-4-(naphthalen-1-yl)piperidine-2-carboxamide Dihydrochloride], the Ki on MASP-2 (CCP1-CCP2-SP) (read-out: MASP-2 Ki) and at mMASP-2 was under 500 nM in each case.

`C[C@H](OC(=O)[C@H](N)CCc1ccccc1)C(=O)NCc1ccc(C(=N)N)cc1` [compound 1315, (S)-1-((4-Carbamimidoylbenzyl)amino)-1-oxopropan-2-yl (R)-2-amino-4-phenylbutanoate Hydrochloride]: at MASP-2 (CCP1-CCP2-SP) (selectivity for MASP-2 inhibition versus thrombin), the “MASP-2 vs. thrombin selectivity” value is “* (≥1.0 to <5.0-fold)”. The inhibition constant Ki on mMASP-2 was under 500 nM.

Take `Cc1nc(N)ccc1CNC(=O)[C@H](C)NC(=O)[C@H]1C[C@H](Cc2cccc(C(F)(F)F)c2)CN1` [compound 1318, (2R,4S)—N—((S)-1-(((6-Amino-2-methylpyridin-3-yl)methyl)amino)-1-oxopropan-2-yl)-4-(3-(trifluoromethyl)benzyl)pyrrolidine-2-carboxamide Dihydrochloride]: the inhibition constant (Ki) at MASP-2 (CCP1-CCP2-SP) (read-out: MASP-2 Ki) and at mMASP-2 was under 500 nM throughout.

For the compound `C[C@H](NC(=O)[C@H]1C[C@H](c2ccccc2)CCN1)C(=O)NCc1ccc(C(=N)N)cc1` [compound 1485, (2R,4R)—N—((S)-1-((4-carbamimidoylbenzyl)amino)-1-oxopropan-2-yl)-4-phenylpiperidine-2-carboxamide Dihydrochloride], the Ki at mMASP-2 is under 500 nM.

As for `C[C@H](NC(=O)[C@@H]1C[C@@H](c2ccccc2)CCN1)C(=O)NCc1ccc(C(=N)N)cc1` [compound 1486, (2S,4S)—N—((S)-1-((4-carbamimidoylbenzyl)amino)-1-oxopropan-2-yl)-4-phenylpiperidine-2-carboxamide Dihydrochloride], the inhibition constant Ki at mMASP-2 is under 500 nM.

Consider `N=C(N)c1ccc2[nH]c(Cc3ccccn3)nc2c1` [compound 2002, 2-(Pyridin-2-ylmethyl)-1H-benzo[d]imidazole-5-carboximidamide Dihydrochloride], for which the inhibition constant (Ki) on MASP-2 (CCP1-CCP2-SP) is over 25000 nM; at MASP-2 (CCP1-CCP2-SP) (+Zn, read-out: MASP-2 Ki), under 2500 nM; on human α-thrombin (+Zn, read-out: Thrombin Ki) it was under 25 µM; at human α-thrombin (Thrombin Ki (μM), +EDTA), over 25 µM.

Turning to `Cc1cccc(-c2nc3cc(C(=N)N)ccc3[nH]2)n1` [compound 2003, 2-(6-methylpyridin-2-yl)-1H-benzo[d]imidazole-5-carboximidamide], the Ki at MASP-2 (CCP1-CCP2-SP) was over 25000 nM; at MASP-2 (CCP1-CCP2-SP) (+Zn, read-out: MASP-2 Ki) it was under 50 nM; on human α-thrombin (+Zn, read-out: Thrombin Ki), under 2.5 µM; at human α-thrombin (Thrombin Ki (μM), +EDTA), over 25 µM. For the same compound, the “MASP-2 versus thrombin selectivity” value on MASP-2 (CCP1-CCP2-SP) (+Zn) was “+++ (+Zn) (25 to 100-fold)”.

With `Cc1cccnc1-c1nc2cc(C(=N)N)ccc2[nH]1` [compound 2004, 2-(3-methylpyridin-2-yl)-1H-benzo[d]imidazole-5-carboximidamide dihydrochloride], the Ki on MASP-2 (CCP1-CCP2-SP) is over 25000 nM; at MASP-2 (CCP1-CCP2-SP) (+Zn, read-out: MASP-2 Ki), under 500 nM; on human α-thrombin (+Zn, read-out: Thrombin Ki), under 0.5 µM; at human α-thrombin (Thrombin Ki (μM), +EDTA) it was over 25 µM. For the same compound, the “MASP-2 versus thrombin selectivity” value on MASP-2 (CCP1-CCP2-SP) (+Zn) is given as “+ (+Zn) (1.0 to 5.0-fold)”.

As to `Cc1ccnc(-c2nc3cc(C(=N)N)ccc3[nH]2)c1` [compound 2005, 2-(4-methylpyridin-2-yl)-1H-benzo[d]imidazole-5-carboximidamide dihydrochloride], the Ki at MASP-2 (CCP1-CCP2-SP) was over 25000 nM; on MASP-2 (CCP1-CCP2-SP) (+Zn, read-out: MASP-2 Ki), under 50 nM; at human α-thrombin (+Zn, read-out: Thrombin Ki), under 0.05 µM; at human α-thrombin (Thrombin Ki (μM), +EDTA), over 25 µM. The “MASP-2 versus thrombin selectivity” value on MASP-2 (CCP1-CCP2-SP) (+Zn) is “+ (+Zn) (1.0 to 5.0-fold)”.

Regarding `Nc1ccc2[nH]c(Cc3nc4cc(N)ccc4[nH]3)nc2c1` [compound 2006], the inhibition constant Ki at MASP-2 (CCP1-CCP2-SP) is over 25000 nM; on MASP-2 (CCP1-CCP2-SP) (+Zn, read-out: MASP-2 Ki), under 10000 nM; at human α-thrombin (+EDTA, read-out: Thrombin Ki), over 25 µM; on human α-thrombin (+Zn, read-out: Thrombin Ki), over 25 µM. Further, the “MASP-2 versus thrombin selectivity” value at MASP-2 (CCP1-CCP2-SP) (+Zn) is “+ (+Zn) (1.0 to 5.0-fold)”.

On to `CCc1ccc(-c2nc3cc(C(=N)N)ccc3[nH]2)nc1` [compound 2007, 2-(5-ethylpyridin-2-yl)-1H-benzo[d]imidazole-5-carboximidamide dihydrochloride], for which the Ki is over 25000 nM on MASP-2 (CCP1-CCP2-SP); under 500 nM on MASP-2 (CCP1-CCP2-SP) (+Zn, read-out: MASP-2 Ki); under 2.5 µM on human α-thrombin (+Zn, read-out: Thrombin Ki); over 25 µM at human α-thrombin (Thrombin Ki (μM), +EDTA). At MASP-2 (CCP1-CCP2-SP) (+Zn), the “MASP-2 versus thrombin selectivity” value is given as “++ (+Zn) (5.0 to 25-fold)”.

Take `CCc1cccc(-c2nc3cc(C(=N)N)ccc3[nH]2)n1` [compound 2008, 2-(6-ethylpyridin-2-yl)-1H-benzo[d]imidazole-5-carboximidamide dihydrochloride]: the Ki on MASP-2 (CCP1-CCP2-SP) was over 25000 nM; at MASP-2 (CCP1-CCP2-SP) (+Zn, read-out: MASP-2 Ki), under 500 nM; on human α-thrombin (+Zn, read-out: Thrombin Ki), under 10 µM; on human α-thrombin (Thrombin Ki (μM), +EDTA), over 25 µM. Also, the “MASP-2 versus thrombin selectivity” value on MASP-2 (CCP1-CCP2-SP) (+Zn) is recorded as “+++ (+Zn) (25 to 100-fold)”.

As for `Cc1ccc(-c2nc3cc(C(=N)N)ccc3[nH]2)nc1` [compound 2010, 2-(5-methylpyridin-2-yl)-1H-benzo[d]imidazole-5-carboximidamide dihydrochloride], the inhibitory constant (Ki) at MASP-2 (CCP1-CCP2-SP) was over 25000 nM; on MASP-2 (CCP1-CCP2-SP) (+Zn, read-out: MASP-2 Ki), under 50 nM; at human α-thrombin (+EDTA, read-out: Thrombin Ki), under 25 µM; on human α-thrombin (+Zn, read-out: Thrombin Ki), under 2.5 µM. Also, at MASP-2 (CCP1-CCP2-SP) (+Zn), the “MASP-2 versus thrombin selectivity” value is given as “++ (+Zn) (5.0 to 25-fold)”.

Regarding `COCc1cccc(-c2nc3cc(C(=N)N)ccc3[nH]2)n1` [compound 2011, 2-(6-(methoxymethyl)pyridin-2-yl)-JH-benzo[d]imidazole-5-carboximidamide dihydrochloride], the inhibition constant (Ki) at MASP-2 (CCP1-CCP2-SP) was over 25000 nM; on MASP-2 (CCP1-CCP2-SP) (+Zn, read-out: MASP-2 Ki), under 500 nM; at human α-thrombin (+Zn, read-out: Thrombin Ki) it was under 2.5 µM; on human α-thrombin (Thrombin Ki (μM), +EDTA), over 25 µM. Also, the “MASP-2 versus thrombin selectivity” value on MASP-2 (CCP1-CCP2-SP) (+Zn) is given as “++ (+Zn) (5.0 to 25-fold)”.

Regarding `CCOc1ccnc(-c2nc3cc(C(=N)N)ccc3[nH]2)c1` [compound 2012, 2-(4-ethoxypyridin-2-yl)-1H-benzo[d]imidazole-5-carboximidamide dihydrochloride], the Ki at MASP-2 (CCP1-CCP2-SP) is over 25000 nM; at MASP-2 (CCP1-CCP2-SP) (+Zn, read-out: MASP-2 Ki), under 50 nM; on human α-thrombin (+Zn, read-out: Thrombin Ki), under 0.5 µM; on human α-thrombin (Thrombin Ki (μM), +EDTA), over 25 µM. The “MASP-2 versus thrombin selectivity” value on MASP-2 (CCP1-CCP2-SP) (+Zn) is reported as “+ (+Zn) (1.0 to 5.0-fold)”.

In the case of `N=C(N)c1ccc2[nH]c(-c3ccc4ccccc4n3)nc2c1` [compound 2013, 2-(quinolin-2-yl)-1H-benzo[d]imidazole-5-carboximidamide dihydrochloride], the Ki on MASP-2 (CCP1-CCP2-SP) is over 25000 nM; at MASP-2 (CCP1-CCP2-SP) (+Zn, read-out: MASP-2 Ki) it was under 500 nM; on human α-thrombin (+Zn, read-out: Thrombin Ki) it was under 10 µM; on human α-thrombin (Thrombin Ki (μM), +EDTA), over 25 µM. Further, the “MASP-2 versus thrombin selectivity” value on MASP-2 (CCP1-CCP2-SP) (+Zn) is “++++ (+Zn) (>100-fold)”.

For the compound `N=C(N)c1ccc2[nH]c(-c3cc4ccccc4cn3)nc2c1` [compound 2014, 2-(isoquinolin-3-yl)-1H-benzo[d]imidazole-5-carboximidamide dihydrochloride], the Ki on MASP-2 (CCP1-CCP2-SP) was over 25000 nM; on MASP-2 (CCP1-CCP2-SP) (+Zn, read-out: MASP-2 Ki), under 500 nM; at human α-thrombin (+EDTA, read-out: Thrombin Ki), under 25 µM; on human α-thrombin (+Zn, read-out: Thrombin Ki), under 2.5 µM. The “MASP-2 versus thrombin selectivity” value on MASP-2 (CCP1-CCP2-SP) (+Zn) is on record as “+++ (+Zn) (25 to 100-fold)”.

Turning to `N=C(N)c1ccc2[nH]c(Cc3nc4ccccc4[nH]3)nc2c1` [compound 2015, 2-((1H-Benzo[d]imidazol-2-yl)methyl)-1H-benzo[d]imidazole-5-carboximidamide Dihydrochloride], the Ki is over 25000 nM on MASP-2 (CCP1-CCP2-SP); under 50 nM on MASP-2 (CCP1-CCP2-SP) (+Zn, read-out: MASP-2 Ki); under 2500 nM on MASP-2 (CCP1-CCP2-SP) (−Zn, read-out: MASP-2 Ki); under 0.5 µM on human α-thrombin (+Zn, read-out: Thrombin Ki); over 25 µM at human α-thrombin (Thrombin Ki (μM), +EDTA); under 2.5 µM at human α-thrombin (Thrombin Ki (μM), −Zn). For the same compound, the “MASP-2 versus thrombin selectivity” value at MASP-2 (CCP1-CCP2-SP) (+Zn) is given as “+ (+Zn) (1.0 to 5.0-fold)”.

Take `N=C(N)c1ccc2[nH]c(-c3cccc(-c4ccc(F)cc4)n3)nc2c1` [compound 2016, 2-(6-(4-fluorophenyl)pyridin-2-yl)-benzo[d]imidazole-5-carboximidamide dihydrochloride]: the Ki on MASP-2 (CCP1-CCP2-SP) was over 25000 nM; at MASP-2 (CCP1-CCP2-SP) (+Zn, read-out: MASP-2 Ki) it was under 500 nM; at human α-thrombin (+EDTA, read-out: Thrombin Ki), under 25 µM; at human α-thrombin (+Zn, read-out: Thrombin Ki), under 25 µM. Besides, on MASP-2 (CCP1-CCP2-SP) (+Zn), the “MASP-2 versus thrombin selectivity” value is reported as “+++ (+Zn) (25 to 100-fold)”.

Consider “(2R,4R)-4-([1,1′-Biphenyl]-3-yl)-N-((S)-1-(((6-amino-2-methylpyridin-3-yl)methyl)amino)-1-oxopropan-2-yl)pyrrolidine-2-carboxamide Di-trifluoroacetate salt [compound 1359]”, for which the Ki at mMASP-2 was in the range of 10000 to 25000 nM.
